Square brackets hold non-standard residues; d marks the D form. Peptide text beside a SMILES is read from it. * marks the point of attachment. Dolaproine = CO[C@@H]([C@@H]1CCCN1)[C@@H](C)C(=O)O; Dil = CC[C@H](C)[C@H](NC)[C@@H](CC(=O)O)OC; NMe2Val = CC(C)[C@@H](C(=O)*)N(C)C

The subject of the first assay is HCC1954 breast ductal carcinoma. Description: Cell viability (Cell Titer Glo 2.0) in HCC1954, 120 hours. The class given is cell-based. Particulars: HCC1954 5-Day Assay; N-methylation of the amide between P4 and P5. The method, then: HCC1954 breast ductal carcinoma and T47D cells (ATCC, Manassas, VA, USA) were seeded into 384-well white-walled culture plates and allowed to adhere for 2-4 hours. Cells were then treated at least in duplicate by addition of 5-fold serially diluted test articles prepared at 2× final concentration and incubated at 37° C. for 120 hours. Cell viability following treatment was determined by Cell Titer Glo 2.0 Assay (Promega, Madison, WI, USA) and normalized to non-treated controls. Dose-response relationships were analyzed using GraphPad Prism (La Jolla, CA, USA), and IC50 values were derived from non-linear regression analyses using a 4-parameter logistic equation.
On the technique in general: In ATP-based viability assays light output follows the ATP content of the culture.
As for `CC[C@H](C)[C@@H]([C@@H](CC(=O)N1CCC[C@H]1[C@H](OC)[C@@H](C)C(=O)N[C@H](C)[C@@H](O)c1ccccc1)OC)N(C)C(=O)[C@@H](NC(=O)[C@H](C(C)C)N(C)C)C(C)C` [Auristatin E, reference compound], the “IC50[N—Me amide]/IC50[NH-amide]” value came out at 23.

As to `CC[C@H](C)[C@@H]([C@@H](CC(=O)N1CCC[C@H]1[C@H](OC)[C@@H](C)C(=O)N[C@@H](Cc1ccccc1)C(=O)OC)OC)N(C)C(=O)[C@@H](NC(=O)[C@H](C(C)C)N(C)C)C(C)C` [Auristatin PHE, reference compound] (NMe2Val-V[Dil][Dolaproine]F-OMe), the “IC50[N—Me amide]/IC50[NH-amide]” value is recorded as 139.

The same assay, now with this note: Homo sapiens, HCC1954, 120 h, read-out: IC50 (nM), in vitro potency in HCC1954.
As to `CC[C@H](C)[C@@H]([C@@H](CC(=O)N1CCC[C@H]1[C@H](OC)[C@@H](C)C(=O)N(C)CCc1cccc(N)c1)OC)N(C)C(=O)[C@@H](NC(=O)[C@@H](C)N(C)C)C(C)C` [Compound 3, (S)-N-((3R,4S,5S)-1-((S)-2-((IR,2R)-3-((3-aminophenethyl)(methyl)amino)-1-methoxy-2-methyl-3-oxopropyl)pyrrolidin-1-yl)-3-methoxy-5-methyl-1-oxoheptan-4-yl)-2-((R)-2-(dimethylamino)propanamido)-N,3-dimethylbutanamide], the 50% inhibitory concentration (IC50) is < 5 nM.

`CC[C@H](C)[C@@H]([C@@H](CC(=O)N1CCC[C@H]1[C@H](OC)[C@@H](C)C(=O)N(C)CCc1cccc(N)c1)OC)N(C)C(=O)[C@@H](NC(=O)CN(C)C)C(C)C` [Compound 4, (S)-N-((3R,4S,5S)-1-((S)-2-((1R,2R)-3-((3-aminophenethyl)(methyl)amino)-1-methoxy-2-methyl-3-oxopropyl)pyrrolidin-1-yl)-3-methoxy-5-methyl-1-oxoheptan-4-yl)-2-(2-(dimethylamino)acetamido)-N,3-dimethylbutanamide]: the IC50 was < 5 nM.

On to `CC[C@H](C)[C@@H]([C@@H](CC(=O)N1CCC[C@H]1[C@H](OC)[C@@H](C)C(=O)N(C)CCc1cccc(N)c1)OC)N(C)C(=O)[C@@H](NC(=O)C(C)(C)CN(C)C)C(C)C` [Compound 5, (S)-N-((3R,4S,5S)-1-((S)-2-((1R,2R)-3-((3-aminophenethyl)(methyl)amino)-1-methoxy-2-methyl-3-oxopropyl)pyrrolidin-1-yl)-3-methoxy-5-methyl-1-oxoheptan-4-yl)-2-(3-(dimethylamino)-2,2-dimethylpropanamido)-N,3-dimethylbutanamide], for which the IC50 fell in the range of 5 to 10 nM.

For the compound `CC[C@H](C)[C@@H]([C@@H](CC(=O)N1CCC[C@H]1[C@H](OC)[C@@H](C)C(=O)N(C)CCc1cccc(N)c1)OC)N(C)C(=O)[C@@H](NC(=O)[C@@H]1CCCN(C)C1)C(C)C` [Compound 6, (R)-N-((S)-1-(((3R,4S,5S)-1-((S)-2-((IR,2R)-3-((3-aminophenethyl)(methyl)amino)-1-methoxy-2-methyl-3-oxopropyl)pyrrolidin-1-yl)-3-methoxy-5-methyl-1-oxoheptan-4-yl)(methyl)amino)-3-methyl-1-oxobutan-2-yl)-1-methylpiperidine-3-carboxamide], the IC50 was > 10 nM.

Turning to `CC[C@H](C)[C@@H]([C@@H](CC(=O)N1CCC[C@H]1[C@H](OC)[C@@H](C)C(=O)N(C)CCc1cccc(N)c1)OC)N(C)C(=O)[C@@H](NC(=O)C(C)(C)N(C)C)C(C)C` [Compound 7, (S)-N-((3R,4S,5S)-1-((S)-2-((IR,2R)-3-((3-aminophenethyl)(methyl)amino)-1-methoxy-2-methyl-3-oxopropyl)pyrrolidin-1-yl)-3-methoxy-5-methyl-1-oxoheptan-4-yl)-2-(2-(dimethylamino)-2-methylpropanamido)-N,3-dimethylbutanamide], the IC50 was < 5 nM.

Turning to `CC[C@H](C)[C@@H]([C@@H](CC(=O)N1CCC[C@H]1[C@H](OC)[C@@H](C)C(=O)N(C)CCc1cccc(N)c1)OC)N(C)C(=O)[C@@H](NC(=O)[C@@H]1CCCN1C)C(C)C` [Compound 8], the IC50 is < 5 nM.

In the case of `CC[C@H](C)[C@@H]([C@@H](CC(=O)N1CCC[C@H]1[C@H](OC)[C@@H](C)C(=O)N(C)CCc1cccc(N)c1)OC)N(C)C(=O)[C@@H](NC(=O)[C@H]1CCCN1C)C(C)C` [Compound 9, (R)-N-((S)-1-(((3R,4S,5S)-1-((S)-2-((1R,2R)-3-((3-aminophenethyl)(methyl)amino)-1-methoxy-2-methyl-3-oxopropyl)pyrrolidin-1-yl)-3-methoxy-5-methyl-1-oxoheptan-4-yl)(methyl)amino)-3-methyl-1-oxobutan-2-yl)-1-methylpyrrolidine-2-carboxamide], the IC50 is < 5 nM.

Turning to `CC[C@H](C)[C@@H]([C@@H](CC(=O)N1CCC[C@H]1[C@H](OC)[C@@H](C)C(=O)N(C)CCc1cccc(N)c1)OC)N(C)C(=O)[C@@H](NC(=O)[C@@H]1CCN(C)C1)C(C)C` [Compound 10, (R)-N-((S)-1-(((3R,4S,5S)-1-((S)-2-((IR,2R)-3-((3-aminophenethyl)(methyl)amino)-1-methoxy-2-methyl-3-oxopropyl)pyrrolidin-1-yl)-3-methoxy-5-methyl-1-oxoheptan-4-yl)(methyl)amino)-3-methyl-1-oxobutan-2-yl)-1-methylpyrrolidine-3-carboxamide], the IC50 is > 10 nM.

As to `CC[C@H](C)[C@@H]([C@@H](CC(=O)N1CCC[C@H]1[C@H](OC)[C@@H](C)C(=O)N(C)CCc1cccc(N)c1)OC)N(C)C(=O)[C@@H](NC(=O)[C@H]1CCCCN1C)C(C)C` [Compound 11, (R)-N-((S)-1-(((3R,4S,5S)-1-((S)-2-((1R,2R)-3-((3-aminophenethyl)(methyl)amino)-1-methoxy-2-methyl-3-oxopropyl)pyrrolidin-1-yl)-3-methoxy-5-methyl-1-oxoheptan-4-yl)(methyl)amino)-3-methyl-1-oxobutan-2-yl)-1-methylpiperidine-2-carboxamide], the IC50 was < 5 nM.

`CC[C@H](C)[C@@H]([C@@H](CC(=O)N1CCC[C@H]1[C@H](OC)[C@@H](C)C(=O)N(C)CCc1cccc(N)c1)OC)N(C)C(=O)[C@@H](NC(=O)C1(N(C)C)CCC1)C(C)C` [Compound 12, N-((S)-1-(((3R,4S,5S)-1-((S)-2-((IR,2R)-3-((3-aminophenethyl)(methyl)amino)-1-methoxy-2-methyl-3-oxopropyl)pyrrolidin-1-yl)-3-methoxy-5-methyl-1-oxoheptan-4-yl)(methyl)amino)-3-methyl-1-oxobutan-2-yl)-1-(dimethylamino)cyclobutanecarboxamide]: the IC50 is < 5 nM.

`CC[C@H](C)[C@@H]([C@@H](CC(=O)N1CCC[C@H]1[C@H](OC)[C@@H](C)C(=O)N(C)CCc1cccc(N)c1)OC)N(C)C(=O)[C@@H](NC(=O)[C@@H]1CCCCN1C)C(C)C` [Compound 13, (S)-N-((S)-1-(((3R,4S,5S)-1-((S)-2-((IR,2R)-3-((3-aminophenethyl)(methyl)amino)-1-methoxy-2-methyl-3-oxopropyl)pyrrolidin-1-yl)-3-methoxy-5-methyl-1-oxoheptan-4-yl)(methyl)amino)-3-methyl-1-oxobutan-2-yl)-1-methylpiperidine-2-carboxamide]: the IC50 was < 5 nM.

As a reminder, the IC50 is the point on the concentration scale where inhibition reaches its midpoint.

The record behind these values is US20260131016A1, “NOVEL AURISTATIN ANALOGS AND IMMUNOCONJUGATES THEREOF” (ADCENTRX THERAPEUTICS INC., priority 2021, published 2026).
